Reference: PMC11490238 (Drug Design, Development and Therapy, 2024)
Values belong to the compound of their own block, whether it stands above or below them.

Columns and labels:
[1] = victim erlotinib, cancer subjects; cited from earlier work
CYP3A5 [2] = target: T1, CYP3A5 (Homo sapiens, UniProt P20815); assay: biochemical
[3] = system: anlotinib metabolism in HLM; assay: in vitro; settings: human, pH 7.4
HLM = settings: anlotinib as substrate in HLMs
CYP1A2 [4] = target: T2, CYP1A2 (Homo sapiens, UniProt P05177); assay: biochemical
T2 sequence (P05177 1-516): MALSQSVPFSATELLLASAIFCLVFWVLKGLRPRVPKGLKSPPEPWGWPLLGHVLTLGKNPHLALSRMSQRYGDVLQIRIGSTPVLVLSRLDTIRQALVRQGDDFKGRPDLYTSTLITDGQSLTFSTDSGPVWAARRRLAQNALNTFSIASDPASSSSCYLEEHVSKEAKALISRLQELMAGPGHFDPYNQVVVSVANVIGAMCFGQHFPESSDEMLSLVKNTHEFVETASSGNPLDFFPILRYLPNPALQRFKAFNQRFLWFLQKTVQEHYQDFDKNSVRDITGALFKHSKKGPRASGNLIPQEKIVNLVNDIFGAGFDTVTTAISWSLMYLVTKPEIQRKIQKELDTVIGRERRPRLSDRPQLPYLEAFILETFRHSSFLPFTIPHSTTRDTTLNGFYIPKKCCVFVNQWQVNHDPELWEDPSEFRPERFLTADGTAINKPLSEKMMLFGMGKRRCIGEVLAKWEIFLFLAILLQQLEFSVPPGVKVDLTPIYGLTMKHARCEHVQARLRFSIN

CYP1A2 [5] = target: T2, CYP1A2; settings: calculated from ISEF (0.69) and CLint,rhCYP
human recombinant CYP3A4 = human recombinant CYP3A4 (Homo sapiens, UniProt P08684); settings: calculated from ISEF (0.49) and CLint,rhCYP
CYP3A5 [6] = target: T1, CYP3A5; settings: calculated from ISEF (0.43) and CLint,rhCYP
in vitro = settings: human, microsomes, pH 7.4
[7] = Chinese cancer volunteers; cited from earlier work
P-gp = settings: previous studies and drug package inserts; cited from earlier work

T1 sequence (P20815 whole entry): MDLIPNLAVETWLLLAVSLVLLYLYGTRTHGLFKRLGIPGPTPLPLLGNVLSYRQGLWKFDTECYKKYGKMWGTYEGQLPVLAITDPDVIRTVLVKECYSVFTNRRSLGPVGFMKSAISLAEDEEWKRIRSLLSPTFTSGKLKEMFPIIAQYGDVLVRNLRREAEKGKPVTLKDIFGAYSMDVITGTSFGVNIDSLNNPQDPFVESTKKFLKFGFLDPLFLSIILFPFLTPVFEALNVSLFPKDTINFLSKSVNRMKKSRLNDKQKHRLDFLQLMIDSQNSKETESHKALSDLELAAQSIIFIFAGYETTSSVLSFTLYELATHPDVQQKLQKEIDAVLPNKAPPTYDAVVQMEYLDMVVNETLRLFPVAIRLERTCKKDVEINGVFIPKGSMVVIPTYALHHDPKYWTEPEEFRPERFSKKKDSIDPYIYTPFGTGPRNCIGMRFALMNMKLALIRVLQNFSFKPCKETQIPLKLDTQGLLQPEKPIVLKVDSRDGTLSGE
Sequence of human recombinant CYP3A4 (P08684 whole entry): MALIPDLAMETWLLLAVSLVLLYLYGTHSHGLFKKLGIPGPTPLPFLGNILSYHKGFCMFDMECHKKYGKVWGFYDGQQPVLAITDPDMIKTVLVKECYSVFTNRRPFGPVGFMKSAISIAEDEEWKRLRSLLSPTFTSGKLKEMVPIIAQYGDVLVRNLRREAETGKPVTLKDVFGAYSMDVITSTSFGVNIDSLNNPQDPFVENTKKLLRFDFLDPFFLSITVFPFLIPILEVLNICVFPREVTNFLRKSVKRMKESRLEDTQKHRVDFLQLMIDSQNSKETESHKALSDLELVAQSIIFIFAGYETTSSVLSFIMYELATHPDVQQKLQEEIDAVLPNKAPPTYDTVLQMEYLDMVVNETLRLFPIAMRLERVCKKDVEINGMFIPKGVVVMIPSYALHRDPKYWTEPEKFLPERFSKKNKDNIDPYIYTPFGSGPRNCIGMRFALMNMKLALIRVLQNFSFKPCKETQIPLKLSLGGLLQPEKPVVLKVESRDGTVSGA

Structure (SMILES): CO[C@H]1/C=C/O[C@@]2(C)Oc3c(C)c(O)c4c(O)c(c(/C=N/N5CCN(C)CC5)c(O)c4c3C2=O)NC(=O)/C(C)=C\C=C\[C@H](C)[C@H](O)[C@@H](C)[C@@H](O)[C@@H](C)[C@H](OC(C)=O)[C@@H]1C [rifampicin]
AUC0–∞ of erlotinib reduced to (fold) by the labelled perpetrator [1]: 0.33 fold
Cmax of erlotinib reduced to (fold) by the labelled perpetrator [1]: 0.71 fold

Ki (CYP3A5 [2]): 6.88 µM
Ki [3]: 3.02 µM
Structure (SMILES): CC[C@H]1OC(=O)[C@H](C)[C@@H](O[C@H]2C[C@@](C)(OC)[C@@H](O)[C@H](C)O2)[C@H](C)[C@@H](O[C@@H]2O[C@H](C)C[C@H](N(C)C)[C@H]2O)[C@](C)(OC)C[C@@H](C)C(=O)[C@H](C)[C@@H](O)[C@]1(C)O [clarithromycin]
Inhibition mechanism (Lineweaver-Burk plots) (HLM): mixed inhibitors

Ki (CYP1A2 [4]): 4.73 µM
Ki [3]: 4.87 µM
Structure (SMILES): C[C@H]1COc2c(N3CCN(C)CC3)c(F)cc3c(=O)c(C(=O)O)cn1c23 [levofloxacin]
Inhibition mechanism (Lineweaver-Burk plots) (HLM): mixed inhibitors

Structure (SMILES): CC(=O)N1CCN(c2ccc(OCC3COC(Cn4ccnc4)(c4ccc(Cl)cc4Cl)O3)cc2)CC1 (stereo not drawn) [ketoconazole]
Inhibition mechanism (Lineweaver-Burk plots) (HLM): mixed inhibitors

fm, share of anlotinib metabolized by CYP1A2 (CYP1A2 [5]): 35%
fm, share of anlotinib metabolized by CYP3A4 (human recombinant CYP3A4): 35%
fm, share of anlotinib metabolized by CYP3A5 (CYP3A5 [6]): 29%
microsomal CLint (in vitro): 18 µL/min/mg
Structure (SMILES): COc1cc2c(Oc3ccc4[nH]c(C)cc4c3F)ccnc2cc1OCC1(N)CC1 [Anlotinib]
CLpo [7]: 11.014 L/h
P-gp substrate characteristics (P-gp): non-substrate
